Assay results reported in patent publication US9421211B2, “N,N′-diarylurea compounds and N,N′-diarylthiourea compounds as inhibitors of translation initiation” (President and Fellows of Harvard College, priority 2009, dated 2016).
Where two headings read alike, the source gives them in different places.

What was measured:
[1] = system: eIF2.GTP.Met-tRNAi ternary complex; experiment: Ternary complex assay: dual luciferase F-luc/R-luc ratio in KLN-tTA/pBISA-DL(ATF-4) cells (HTS screen, 96-well hit confirmation, dose response); format: cell-based, mouse; details: for Ternary Complex Activity: Maximum effect (Emax, fold over control) / Cmax / fold induction at 3 µM / fold induction at 10 µM: cell line not stated; for Cmax: read-out: Ternary Complex Activity: Maximum effective dose Cmax; for fold induction at 3 µM / fold induction at 10 µM: Mus musculus; for Activity 2.5 uM: compound at 2.5 uM; for Activity 2.5 uM / Activity 10 uM: confirmed hits (Table 5); for Activity 10 uM: compound at 10 uM; for Effect on firefly/renilla luciferase ratio: KLN-tTA/pBISA-DL(ATF-4) cells
Description: For assay development, a bi-directional plasmid was designed in which a common promoter/enhancer complex drives the transcription of firefly luciferase (F-luc) ORF fused to the 5′ untranslated region (UTR) of ATF-4, and of the renilla luciferase (R-luc) ORF fused to a 90-nucleotide 5′ UTR derived from the plasmid (FIG. 6A). Because the tetracycline-regulated transactivator ((tTA), required for driving transcription from this vector) is not normally expressed in the mammalian cells, stable KLN cancer cells were constructed that expressed tTA (KLN-tTA).
The KLN-tTA colonies that drove expression of reporter genes from pBISA-DL plasmid were selected by transient transfection and dual luciferase assay. One of these KLN-tTA cell lines was transfected with the pBISA-DL^(ATF-4) expression vector, stable colonies were selected by dual luciferase assay and expanded. To determine if reduced availability of the eIF2.GTP.Met-tRNAi ternary complex increased the translation of firefly luciferase and decreased translation of renilla luciferase, selected KLN-tTA/pBISA-DL^(ATF-4) colonies were treated with thapsigargin (TG) or tunicamycin (TU), two agents known to cause phosphorylation of eIF2α.
This assay was then adapted for high throughput screening in 96 and 384 well plates. This was done by evaluating the cell density, length of exposure to compounds, DMSO tolerance and optimum firefly and renilla substrate. We then challenged these cells with thapsigargin or DMSO. […] Cell-based assays usually have higher variation than homogeneous in vitro assays due to position effect in the plate, and other variables associated with handling of cells and the plates.
Screening was conducted in 384 well white opaque plates (Nalge Nunc), 100 μl volume RPMI+10% fetal bovine serum. Cells were plated at the sub-confluent density of 10,000 cells/well, and allowed to attach for a period of 16-18 hours at 37° C., 5% CO2. Compounds were added as 1 μl of a 1 mM DMSO stock solution for a final screening concentration of […] using low-volume tips for transfer (Molecular Bioproducts). Cells were then incubated in the presence of compound for an additional sixteen hours, again at 37° C., 5% CO2. Following incubation 70 μl of the culture medium was removed from each well to allow for reagent addition and plates were allowed to equilibrate to room temperature for thirty minutes. Firefly luciferase reporter activity was then read by the addition of thirty microliters of Dual Glo Luciferase reagent (Promega), followed by one hour incubation at room temperature to allow for adequate signal buildup. Luminescence counting was conducted on a Microbeta Trilux using a 1 second read time. Renilla luciferase reporter activity was measured following addition of 30 μl Stop and Glo Luciferase reagent (Promega) and incubation identical to the one carried out for the firefly luciferase one.
Compound scores were interpreted as firefly luciferase activity divided by renilla luciferase activity, normalized to the plate's DMSO control. […] All data analysis was conducted using the BioAssay HTS software package (CambridgeSoft).
102,709 compounds in the NCI Open Chemical Repository were then screened using this HTS assay. […] Initial hits were confirmed by repeating the same dual luciferase assay in 96 well plates. Briefly, 20,000 cells/well were plated in triplicate for each concentration (10, 5 and 2.5 μM) of the compounds.

[2] = system: CRL-2351 human breast cancer cells; experiment: Cell proliferation SRB assay, CRL-2351; format: cell-based
Experimental: (§1) Reduced availability of the ternary complex causes inhibition of translation initiation and thereby of cell proliferation. […] The effects of N,N′-diarylureas on the proliferation KLN mouse squamous cell carcinoma, CRL-2351 human breast, CRL-2813 human melanoma, A549 human lung and PC-3 human prostate cancer cell lines were tested.
(§2) Cell Growth Assay: Cell Growth was Measured by the SRB Assay.

[3] = system: KLN mouse squamous cell carcinoma cells; experiment: Cell proliferation SRB assay, KLN; format: cell-based; details: KLN cells, read-out: IC50 (μM) by SRB assay, KLN
Experimental: as §1, §2

[4] = system: eIF2.GTP.Met-tRNAi ternary complex; experiment: ATF-4 assay (firefly/renilla luciferase ratio) in CRL-2351 cell line; format: cell-based, human
Description: For example, reducing amount of the ternary complex increases translation of ATF-4, which results in elevated expression of CHOP mRNA and protein. Therefore, expression of endogenous CHOP mRNA and CHOP protein in KLN-tTA/pBISA-DL^(ATF-4) cells were utilized as secondary assays to validate N,N′-diarylurea compounds as modifiers of the eIF2.GTP.Met-tRNAi ternary complex. […] To rule out the possibility that the activity of N,N′-diarylurea compounds was confined to a single cell type, the effects of these compounds on the ternary complex assay and the expression of CHOP mRNA was assayed in CRL-2351, PC-3, CRL-2813 human breast, prostate, and melanoma cancer cell lines respectively. For the reporter gene assay, the three human cell lines were co-transfected with tTA expression vector and the pBISA-DL^(ATF-4) dual luciferase expression vector shown in FIG. 6. […] The expression of CHOP mRNA was assayed by real time PCR in the same cell lines treated with 5 or 20 μM of each compound.
Stable and transient transfection: Cells were seeded at the density of 10^5 in 60-mm (stable transfection) or 10^4 cells per well of 96-well plate (transient transfection) plates and transfected one day later using the Qiagen Transfectamine transfection kit. For selection of stable cell lines, transfected cells were transferred to 100-mm plates and selected with appropriate antibiotics.
Dual luciferase assay: Cells or minced tumors expressing firefly and renilla luciferases were lysed and the extracts assayed with a glow type dual luciferase assay kit, per manufacturer's instruction (Promega Inc., Madison, Wis.).

[5] = CRL-2351 human breast cancer cells, read-out: Growth Inhibition IC50 (μm)

IC50 [2, 5] [µM] | Compound | fold induction at 3 µM [1] | fold induction at 10 µM [1] | further results
– | Cc1ccc(N(C)C(=O)Nc2cc(C(F)(F)F)cc(C(F)(F)F)c2)cc1O [BLS13] | – | – | Ternary Complex Activity: Maximum effect (Emax, fold over control) [1]: 8.5 fold over control; Cmax [1]: 80 µM
– | COc1cc(N(C)C(=O)Nc2cc(C(F)(F)F)cc(C(F)(F)F)c2)ccc1C [BLS14] | – | – | Ternary Complex Activity: Maximum effect (Emax, fold over control) [1]: Inactive
– | CN(C(=O)Nc1cc(C(F)(F)F)cc(C(F)(F)F)c1)c1cc(C(F)(F)F)cc(C(F)(F)F)c1 [BLS17] | – | – | Ternary Complex Activity: Maximum effect (Emax, fold over control) [1]: 13 fold over control; Cmax [1]: 10 µM
– | Cc1ccc(NC(=O)Nc2cc(C(F)(F)F)cc(C(F)(F)F)c2)cc1OCCN(C)C [Compound 13, 3-[3,5-bis(trifluoromethyl)phenyl]-1-{3-[2-(dimethylamino)ethoxy]-4-methylphenyl}urea] | – | – | IC50 ([2]; Homo sapiens, 2351 cells, read-out: IC50 (μM) by SRB assay, 2351): 2.9 µM; IC50 [3]: 12.4 µM; maximal fold induction ([4]; Homo sapiens, read-out: ATF-4 Amax: maximal activity, ratio of firefly over renilla luciferase expression): 12.5; EC (activity threshold of 5) ([4]; Homo sapiens, read-out: ATF-4 C[5] (μM): concentration corresponding to an activity threshold of 5): 5 µM; Cmax ([4]; read-out: ATF-4 Cmax (μM): concentration corresponding to the maximal activity): 10 µM
0.4 | FC(F)(F)c1cc(NC(=S)Nc2ccc(Cl)c(C(F)(F)F)c2)ccc1Cl [Compound 1778] | 5 | 8 | –
1.2 | FC(F)(F)c1ccc(NC(=S)Nc2ccc(Cl)c(Cl)c2)cc1 [Compound 1797] | 1 | 1 | –
0.4 | FC(F)(F)c1cc(NC(=S)Nc2ccc(Cl)c(Cl)c2)cc(C(F)(F)F)c1 [Compound 1798] | 3 | 5 | –
0.7 | FC(F)(F)c1cc(NC(=S)Nc2ccc(Cl)c(Cl)c2)ccc1Cl [Compound 1799] | 4 | 4 | –
0.5 | FC(F)(F)c1cc(NC(=S)Nc2ccc(Cl)cc2)cc(C(F)(F)F)c1 [Compound 1800] | 3 | 4 | –
0.8 | FC(F)(F)c1cc(NC(=S)Nc2ccc(Cl)cc2)ccc1Cl [Compound 1801] | 3 | 3 | –
3.5 | Cc1ccc(NC(=S)Nc2ccc(Cl)c(C(F)(F)F)c2)cc1O [Compound 1802] | 1.5 | 7 | –
1.7 | Cc1ccc(NC(=S)Nc2cc(C(F)(F)F)cc(C(F)(F)F)c2)cc1O [Compound 1803] | 1 | 12 | –
0.1 | FC(F)(F)c1cc(NC(=S)Nc2cc(C(F)(F)F)cc(C(F)(F)F)c2)cc(C(F)(F)F)c1 [Compound 1804] | 6 | 25 | –
1.6 | S=C(Nc1ccc(Cl)cc1)Nc1ccc(Cl)c(Cl)c1 [Compound 1805] | 1.4 | 8 | –
0.9 | S=C(Nc1ccc(Cl)c(Cl)c1)Nc1ccc(Cl)c(Cl)c1 [Compound 1806] | 2.5 | 3.5 | –
2 | CNC(=O)c1cc(Oc2ccc(NC(=S)Nc3ccc(Cl)c(C(F)(F)F)c3)cc2)ccn1 [Compound 1814] | 1.5 | 2 | –
> 20 | COc1ccc(NC(=S)Nc2ccccc2)cc1 [Compound 1815] | 1 | 1 | –
1.5 | COc1ccc(NC(=S)Nc2cc(C(F)(F)F)cc(C(F)(F)F)c2)cc1 [Compound 1816] | 1 | 2.5 | –
1.5 | FC(F)(F)c1cc(NC(=S)Nc2ccccc2)cc(C(F)(F)F)c1 [Compound 1819] | 1 | 6 | –
1.5 | CC(C)c1ccccc1NC(=S)Nc1cc(C(F)(F)F)cc(C(F)(F)F)c1 [Compound 1820] | 1.5 | 11 | –
4 | CC(C)(C)c1ccccc1NC(=S)Nc1cc(C(F)(F)F)cc(C(F)(F)F)c1 [Compound 1821] | 1 | 1 | –
2 | FC(F)(F)c1cc(Nc2nncn2-c2cc(C(F)(F)F)cc(C(F)(F)F)c2)cc(C(F)(F)F)c1 [Compound 1836] | 1 | 1 | –
– | Clc1ccc(Nc2nncn2-c2ccc(Cl)c(Cl)c2)cc1Cl [Compound 1842] | 1 | 1 | –
– | N#Cc1ncc(Cl)cc1[N+](=O)[O-] [Compound 141226] | – | – | Activity 2.5 uM [1]: 1.02; Activity 10 uM [1]: 3.8
– | CC(C)(C)C[CH2][Hg][Cl] [Compound 146249] | – | – | Activity 2.5 uM [1]: 2.57; Activity 10 uM [1]: 3.25
– | C[C@H](N)C(=O)NCC(=O)N[C@H]1CSSC[C@@H](C(=O)O)NC(=O)[C@H](CO)NC(=O)[C@H]([C@@H](C)O)NC(=O)[C@H](Cc2ccccc2)NC(=O)[C@H]([C@@H](C)O)NC(=O)[C@H](CCCCN)NC(=O)[C@H](Cc2c[nH]c3ccccc23)NC(=O)[C@H](Cc2ccccc2)NC(=O)[C@H](Cc2ccccc2)NC(=O)[C@H](CC(N)=O)NC(=O)[C@H](CCCCN)NC1=O [Somatostatin] | – | – | Relative F-luc/R-luc Ratio (+/− SEM) ([1]; agent at 20 μM): 0.9 + 0.2
– | COc1cc([C@@H]2c3cc4c(cc3[C@@H](O[C@@H]3O[C@@H]5CO[C@@H](C)O[C@H]5[C@H](O)[C@H]3O)[C@H]3COC(=O)[C@H]23)OCO4)cc(OC)c1O [etoposite, reference compound] | – | – | Effect on firefly/renilla luciferase ratio [1]: no effect
– | CO[C@@]12[C@H](COC(N)=O)C3=C(C(=O)C(C)=C(N)C3=O)N1C[C@@H]1N[C@@H]12 [mitomycin, reference compound] | – | – | Effect on firefly/renilla luciferase ratio [1]: no effect
– | C/C=C(/C)C(=O)O[C@H]1C(C)=C2[C@H]([C@@H]1OC(=O)CCCCCCC)[C@@](C)(OC(C)=O)C[C@H](OC(=O)CCC)[C@@]1(O)[C@H]2OC(=O)[C@@]1(C)O [thapsigargin, reference compound] | – | – | Effect on firefly/renilla luciferase ratio [1]: increase in the ratio
– | tunicamycin [reference compound] | – | – | Effect on firefly/renilla luciferase ratio [1]: increase in the ratio
